Data: patent US20090326008A1, “NF-kappa B Inhibitor” (priority 2006, published 2009)

Assays:
Type in all cases: cell-based, human
NF-κB = assay: NF-kappaB reporter assay (pNF-kappaB-SEAP) in IL-1β-stimulated MKN-45 cells; conditions: IL-1β 2 ng/mL for 6 hours, DMSO (0.05%) control = 1.00, triplicate
Protocol: pNF-kappaB-SEAP was obtained from Clonetech Laboratories Inc.
Cryopreserved MKN-45 cells (product of JCRB (Japanese Collection of Research Bioresources)) were thawed and cultured in a standard medium in an incubator (37° C., 5% CO2). Every three to five days, the cells were recovered by treatment with Trypsin-EDTA, then adequately diluted and subcultured. MKN-45 cells subcultured two or more times with a survival rate of 95% or more were used in each experiment.
The subcultured MKN-45 cells were harvested using Trypsin-EDTA solution, and the number of viable cells was counted. The cells were suspended in a standard medium to yield a 1.5×10^5 cells/mL suspension. A 24-well plate was seeded with 500 μL/well of the cell suspension, and the cells were cultured in an incubator (37° C., 5% CO2).
The day after seeding, transfection was performed according to the following protocol.
(4.1) Preparation of Plasmid Solution 4 μL of 0.1 μg/μL pNFkappaB-SEAP was placed into each well and diluted with 50 μL of OPTI-MEM I (product of Invitrogen Japan K.K.) by mixing by inversion.
1 μL of Lipofectamine 2000 reagent (product of Invitrogen) was placed into each well and diluted with 50 μL of OPTI-MEM I (product of Life Technologies Inc.) by mixing by inversion. The mixture was allowed to stand at room temperature for 5 to 10 minutes to prepare a Lipofectamine dilution.
The plasmid solution and the Lipofectamine dilution were mixed by inversion and allowed to stand at room temperature for 20 to 30 minutes to prepare a transfection mixture.
The culture medium was removed from the 24-well plate by suction. While care was taken not to dry the subcultured MKN-45 cells, the inner surface of the wells was washed with 1 mL/well of PBS. After the medium was replaced with 500 μL/well of OPTI-MEM I (product of Life Technologies Inc.), 100 μL/well of the transfection mixture was added, and the cells were cultured in a incubator (37° C., 5% CO2). After about 5 hours of incubation, the medium was replaced with a standard medium, and the cells were further cultured in a CO2 incubator (37° C., 5% CO2) until the following day.
On the following morning, the culture medium supernatant was removed by suction and replaced with 1 mL/well of the test compound solution or control solution diluted with a standard medium. The cells were cultured in a CO2 incubator (37° C., 5% CO2) for 1 hour. Each experiment was performed in triplicate.
200 ng/mL IL-1β was added in an amount of 10 μL/well (final concentration: 2 ng/mL), and the cells were cultured in a CO2 incubator (37° C., 5% CO2) for 6 hours.
A reporter assay was performed using Reporter Assay Kit-SEAP (product of Toyobo Co.) according to the manufacturer's protocol.
More specifically, 500 μL of the culture broth was transferred into a tube and centrifuged at 15,000 rpm for 5 minutes at 4° C. The supernatant was transferred into a 96-well white plate. The positive control included in the Reporter Assay Kit-SEAP, and a standard medium as a blank control were each added in an amount of 20 μL/well to the 96-well white plate. Further, an inhibitor for inhibiting the AP activity of the MKN-45 cells was added in an amount of 20 μL/well. After sealing the plate, the contents were mixed well. The plate was placed into a CO2 incubator (37° C., 5% CO2) and allowed to stand for 30 minutes. Subsequently, the plate was allowed to stand on ice for 1 minute, followed by addition of 160 μL/well of Lumi-Phos Plus (a chemiluminescent substrate, product of Lumigen Inc.). The plate was sealed again and placed in a light-shielded state into a CO2 incubator (37° C., 5% CO2). After the plate was allowed to stand for 15 to 30 minutes, luminescence was measured for about 5 to about 10 seconds using a luminometer.
The results of the reporter assay were expressed as Percent Control (or Inhibition), calculated according to the following formulae. The luminescence of each sample was calculated by subtracting the average of blank samples.

COX2 = assay: Relative COX2 mRNA expression in IL-1β-stimulated MKN-45 cells (real-time PCR); conditions: IL-1β-stimulated DMSO-treated cells = 100%, ACTB reference
Protocol: (§1) RNA was extracted from the cells used in Example 2 according to the manufacturer's protocol for ABI Prism 6100 Nucleic Acid PrepStation (a nucleic acid isolation system, product of Applied Biosystems). More specifically, after removal of the culture supernatant and washing with 1 mL of PBS, 250 μL of Nucleic Acid Purification Lysis Solution (Part No. 4305895, Applied Biosystems) was added, and then agitated using a shaker for 2 to 3 minutes. The Lysis Solution containing the cell lysate was collected, and the total amount was transferred to the wells of RNA Purification Tray (Part No. 4305673, Applied Biosystems), which had been pre-wet with 40 μL of Nucleic Acid Purification Wash Solution I (Part No. 4305891, Applied Biosystems) beforehand. Aspiration (20% pressure) was performed for 2 minutes to adsorb the sample onto the RNA Purification Tray, followed by sequentially adding and aspirating (20% pressure, 2 min.) 500 μL of Wash Solution I, Nucleic Acid Purification (Part No. 4305891, Applied Biosystems), 400 μL of Wash Solution II, Nucleic Acid Purification (Part No. 4305890, product of Applied Biosystems), 400 μL of the Wash Solution II, and 300 μL of the Wash Solution II in that order. Aspiration (90% pressure) was performed for 5 minutes to remove the water content from the RNA Purification Trays. After addition of 150 μL of Elution Solution, Nucleic Acid Purification (Part No. 4305893, product of Applied Biosystems), aspiration (20% pressure) was performed for 2 minutes, while collecting the outflow. This was used as collected RNA solution.
(§2) Absorbance of the collected RNA solution at 260 nm was measured using a microplate spectrophotometer (“SpectraMax Plus”, product of Molecular Devices) with an analysis software (“SOFTmaxPRO ver.3.1.2”, product of Molecular Devices), and the RNA concentration was determined from the absorbance. Likewise, absorbance at 280 nm was measured and the purity of the RNA was determined using the analysis software.
(§3) cDNA was synthesized according to the manufacturer's protocol for TaqMan® Reverse Transcription Reagents (Part No. N808-0234, product of Applied Biosystems). More specifically, about 0.5 μg of RNA, 2.5 μL of 10×RT buffer, 5.5 μL of MgCl2 solution, 5 μL of dNTP mixture, 1.25 μL of random hexamer (primers), 0.5 μL of RNase inhibitor, and 0.63 μL of MultiScribe Reverse Transcriptase (product of Applied Biosystems) were added to each collected RNA sample in a tube, and DEPC-treated water was added to make a total volume of 25 μL and stirred. A reaction consisting of 25° C. for 10 minutes, 48° C. for 30 minutes, and 95° C. for 5 minutes was performed using a PCR thermal cycler (“TaKaRa PCR Thermal Cycler Dice”, product of Takara Bio Inc.) to prepare a cDNA solution.
(§4) PCR was performed according to the manufacturer's protocol for TaqMan® Gene Expression Assays (product of Applied Biosystems). More specifically, 5 μL of TaqMan® Fast Universal PCR Master Mix (product of Applied Biosystems), 0.5 μL of TaqMan® Gene Expression Assays for the target gene (gene-specific probe and primer sets, product of Applied Biosystems), and 4.5 μL of the above-obtained cDNA solution were added to each sample and stirred. A PCR reaction consisting of heating at 95° C. for 20 seconds, followed by 40 cycles consisting of heating at 95° C. for 3 seconds and annealing and extension at 60° C. for 30 seconds was performed using a real-time PCR device (“Applied Biosystems 7500 Real-Time PCR System”) with SDS v1.4 Software (product of Applied Biosystems). Threshold cycle (Ct) values were calculated using the software.
(§5) The Assay IDs of the TaqMan® Gene Expression Assays for the target genes used are as follows:
(§6) The expression level of each gene was determined according to the following formula using the level of ACTB as a reference standard.
(§7) (Relative mRNA expression level)=2̂−{(Ct value of the target gene)−(Ct value of ACTB)} […]

TNFα = assay: Relative TNFα mRNA expression in IL-1β-stimulated MKN-45 cells (real-time PCR); conditions: IL-1β-stimulated DMSO-treated cells = 100%, ACTB reference
Protocol: as §1, §2, §3, §4, §5, §6, §7

IL-8 = assay: Relative IL-8 mRNA expression in IL-1β-stimulated MKN-45 cells (real-time PCR); conditions: IL-1β-stimulated DMSO-treated cells = 100%, ACTB reference
Protocol: as §1, §2, §3, §4, §5, §6, §7

| Compound | NF-kappaB reporter (SEAP luminescence) IL-1b(+) mean, relative to control (NF-κB) | COX2 relative mRNA expression level, Mean (COX2) | TNFa relative mRNA expression level, Mean (TNFα) | IL-8 relative mRNA expression level, Mean (IL-8) |
| --- | --- | --- | --- | --- |
| COC(=O)c1ccc(CN2C(=O)CCc3c(CC4SC(=O)NC4=O)ccc(OC)c32)cc1 (stereo not shown) [Test Compound 025] | 0.58 | 38.3% | 53.0% | 59.9% |
| COc1ccc(CC2SC(=O)NC2=O)c2c1N(Cc1ccc(Br)cc1)C(=O)CC2 (stereo not shown) [Test Compound 123] | 0.46 | 28.6% | 28.5% | 48.3% |
| COc1ccc(CC2SC(=O)NC2=O)c2c1N(Cc1ccc(C#N)cc1)C(=O)CC2 (stereo not shown) [Test Compound 125] | 0.55 | 29.2% | 52.5% | 45.4% |
| COc1ccc(CC2SC(=O)NC2=O)c2c1N(Cc1ccc(OCc3ccccc3)cc1)C(=O)CC2 (stereo not shown) [Test Compound 127] | 0.60 | 31.0% | 49.8% | 44.8% |
| COc1ccc(CC2SC(=O)NC2=O)c2c1N(Cc1ccc(NS(C)(=O)=O)cc1)C(=O)CC2 (stereo not shown) [Test Compound 131] | 0.49 | 80.9% | 71.3% | 77.9% |
| O=C1NC(=O)C(Cc2cccc3c2CCC(=O)N3Cc2ccc(Br)cc2)S1 (stereo not shown) [Test Compound 134] | 0.46 | 33.1% | 36.6% | 55.4% |
| O=C1NC(=O)C(Cc2cccc3c2CCC(=O)N3c2ccccc2)S1 (stereo not shown) [Test Compound 150] | 0.71 | 53.7% | 53.9% | 52.0% |
